Assays:
[1] = test system: 22RV1 cells; experiment: 22RV1 cell proliferation inhibition, CCK-8; format: cell-based; conditions: 22RV1, 7 days
Protocol: The complete medium required for 22RV1 cells is RPM11640 (ATCC, Product number: 30-2001) basal medium containing 10% fetal bovine serum. 22RV1 cells were seeded in a 96-well plate at a density of 4,000 cells/well, and the next day, different concentrations of the compound of the present invention and the positive control sample JQ1 (source: Bide Pharmaceuticals) were prepared to treat the cells, and the cells were cultured at 37° C. and 5% CO2 for 7 days in the incubator. Cell viability was detected using the CCK-8 kit (Beyotime, Product number: C0040) according to the manufacturer's instructions. According to the inhibition rate, the GraphPad Prism software was used to calculate the IC50 value of each compound for 7 days, and the results are shown in Table 4.

[2] = test system: MV-4-11 cells; experiment: MV-4-11 cell proliferation inhibition, CCK-8; format: cell-based; conditions: Homo sapiens, MV4-11, 96 h, MV-4-11, 4 days, Table 8, positive control Ibrutinib
How it was run: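 MV-4-11 cells (7,500/well) in IMDM with 10% FBS were exposed to graded compound concentrations for 4 days at 37 °C, 5% CO2. Viability was measured with CCK-8, and IC50 values were derived from inhibition rates.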

Row | Structure (SMILES) | IC50 ([1]; Homo sapiens, 168 h) [nM] | IC50 [2] [nM] | IC50 [1] [nM]
1 | Cc1sc2c(c1C)C(c1ccc(Cl)cc1)=N[C@@H](CC(=O)OC(C)(C)C)c1nnc(C)n1-2 [JQ1, reference compound] | – | – | 44
2 | Cc1sc2c(c1C)C(c1ccc(Cl)cc1)=N[C@@H](CC(=O)N1CC3(CCc4cc5c(cc4O3)CN(C3CCC(=O)NC3=O)C5=O)C1)c1nnc(C)n1-2 (stereo partly drawn) [PROTAC 46, 3-(1-(2-((S)-4-(4-chlorophenyl)-2,3,9-trimethyl-6H-thieno[3,2-f][1,2,4]triazolo[4,3-a][1,4]diazepine-6-yl)acetyl)-6′-oxo-3′,4′,6′,8′-tetrahydro-7′H-spiro[azetidine-3,2′-pyrano[2,3-f]isoindole]-7′-yl)piperidine-2,6-dione] | 226 | 5.4 | –
3 | Cc1sc2c(c1C)C(c1ccc(Cl)cc1)=N[C@@H](CC(=O)N1CCC3(CC1)COc1cc4c(cc1O3)CN(C1CCC(=O)NC1=O)C4=O)c1nnc(C)n1-2 (stereo partly drawn) [PROTAC 49, 3-(1-(2-((S)-4-(4-chlorophenyl)-2,3,9-trimethyl-6H-thieno[3,2-f][1,2,4]triazolo[4,3-a][1,4]diazepine-6-yl)acetyl)-6′-oxo-6′,8′-dihydro-3′H,7′H-spiro[piperidin-4,2′-[1,4]dioxino[2,3-f]isoindole]-7′-yl)piperidine-2,6-dione] | 141 | 8.2 | –

Further compounds by falling IC50 ([1]; Homo sapiens, 168 h), results first:

Row | IC50 ([1]; Homo sapiens, 168 h) [nM] | IC50 [2] [nM] | Structure (SMILES) | IC50 [1] [nM]
4 | 123 | 20 | Cc1sc2c(c1C)C(c1ccc(Cl)cc1)=N[C@@H](CC(=O)N1CC3(CCc4cc5c(cc4O3)C(=O)N(C3CCC(=O)NC3=O)C5=O)C1)c1nnc(C)n1-2 (stereo partly drawn) [PROTAC 51, 1-(2-((S)-4-(4-chlorophenyl)-2,3,9-trimethyl-6H-thieno[3,2-f][1,2,4]triazole[4,3-a][1,4]diazepine-6-yl)acetyl)-7′-(2,6-dioxopiperidin-3-yl)-3′,4′-dihydro-6′H-spiro[azetidine-3,2′-pyrano[2,3-f]isoindole]-6′,8′(7′H)-dione] | –
5 | 103 | 17 | Cc1sc2c(c1C)C(c1ccc(Cl)cc1)=N[C@@H](CC(=O)N1CCC3(CCc4cc5c(cc4O3)CN(C3CCC(=O)NC3=O)C5=O)CC1)c1nnc(C)n1-2 (stereo partly drawn) [PROTAC 47, 3-(1-(2-((S)-4-(4-chlorophenyl)-2,3,9-trimethyl-6H-thieno[3,2-f][1,2,4]triazolo[4,3-a][1,4]diazepine-6-yl)acetyl)-6′-oxo-3′,4′,6′,8′-tetrahydro-7′H-spiro[piperidine-4,2′-pyrano[2,3-f]isoindole]-7′-yl)piperidine-2,6-dione] | –
6 | 24 | 0.96 | Cc1sc2c(c1C)C(c1ccc(Cl)cc1)=N[C@@H](CC(=O)N1CCC3(CCc4cc5c(cc4O3)C(=O)N(C3CCC(=O)NC3=O)C5)CC1)c1nnc(C)n1-2 (stereo partly drawn) [PROTAC 48, 3-(1-(2-((S)-4-(4-chlorophenyl)-2,3,9-trimethyl-6H-thieno[3,2-f][1,2,4]triazolo[4,3-a][1,4]diazepine-6-yl)acetyl)-8′-oxo-3′,4′,6′,8′-tetrahydro-7′H-spiro[piperidine-4,2′-pyrano[2,3-f]isoindole]-7′-yl)piperidine-2,6-dione] | –
7 | 15 | 6.9 | Cc1sc2c(c1C)C(c1ccc(Cl)cc1)=N[C@@H](CC(=O)N1CCC3(CCc4cc5c(cc4O3)C(=O)N(C3CCC(=O)NC3=O)C5=O)CC1)c1nnc(C)n1-2 (stereo partly drawn) [PROTAC 50, 1-(2-((S)-4-(4-chlorophenyl)-2,3,9-trimethyl-6H-thieno[3,2-f][1,2,4]triazole[4,3-a][1,4]diazepine-6-yl)acetyl)-7′-(2,6-dioxopiperidin-3-yl)-3′,4′-dihydro-6′H-spiro[piperidine-4,2′-pyrano[2,3-f]isoindole]-6′,8′(7′H)-dione] | –

— patent US20250129088A1, “CEREBLON E3 UBIQUITIN LIGASE INHIBITOR” (Gan & Lee Pharmaceuticals Co., Ltd., priority 2022, published 2025)
